# Assay results as given in article PMC12210912, “Pharmacologic properties and inhibitory activity of 6-azasteroids against Mycobacterium leprae in vivo and in vitro” (Microbiology Spectrum, 2025).
# Where two headings read alike, the source gives them in different places.
# Assays:
# hERG channel = molecular target: T1, hERG channel (Homo sapiens, UniProt Q12809); experiment: hERG potassium channel current inhibition, whole-cell patch clamp; assay type: cell-based; conditions: hERG-expressing HEK 293 cells, whole-cell recording, 25 °C
# T1 construct: host or cells: HEK 293
# T1 sequence (Q12809 whole entry): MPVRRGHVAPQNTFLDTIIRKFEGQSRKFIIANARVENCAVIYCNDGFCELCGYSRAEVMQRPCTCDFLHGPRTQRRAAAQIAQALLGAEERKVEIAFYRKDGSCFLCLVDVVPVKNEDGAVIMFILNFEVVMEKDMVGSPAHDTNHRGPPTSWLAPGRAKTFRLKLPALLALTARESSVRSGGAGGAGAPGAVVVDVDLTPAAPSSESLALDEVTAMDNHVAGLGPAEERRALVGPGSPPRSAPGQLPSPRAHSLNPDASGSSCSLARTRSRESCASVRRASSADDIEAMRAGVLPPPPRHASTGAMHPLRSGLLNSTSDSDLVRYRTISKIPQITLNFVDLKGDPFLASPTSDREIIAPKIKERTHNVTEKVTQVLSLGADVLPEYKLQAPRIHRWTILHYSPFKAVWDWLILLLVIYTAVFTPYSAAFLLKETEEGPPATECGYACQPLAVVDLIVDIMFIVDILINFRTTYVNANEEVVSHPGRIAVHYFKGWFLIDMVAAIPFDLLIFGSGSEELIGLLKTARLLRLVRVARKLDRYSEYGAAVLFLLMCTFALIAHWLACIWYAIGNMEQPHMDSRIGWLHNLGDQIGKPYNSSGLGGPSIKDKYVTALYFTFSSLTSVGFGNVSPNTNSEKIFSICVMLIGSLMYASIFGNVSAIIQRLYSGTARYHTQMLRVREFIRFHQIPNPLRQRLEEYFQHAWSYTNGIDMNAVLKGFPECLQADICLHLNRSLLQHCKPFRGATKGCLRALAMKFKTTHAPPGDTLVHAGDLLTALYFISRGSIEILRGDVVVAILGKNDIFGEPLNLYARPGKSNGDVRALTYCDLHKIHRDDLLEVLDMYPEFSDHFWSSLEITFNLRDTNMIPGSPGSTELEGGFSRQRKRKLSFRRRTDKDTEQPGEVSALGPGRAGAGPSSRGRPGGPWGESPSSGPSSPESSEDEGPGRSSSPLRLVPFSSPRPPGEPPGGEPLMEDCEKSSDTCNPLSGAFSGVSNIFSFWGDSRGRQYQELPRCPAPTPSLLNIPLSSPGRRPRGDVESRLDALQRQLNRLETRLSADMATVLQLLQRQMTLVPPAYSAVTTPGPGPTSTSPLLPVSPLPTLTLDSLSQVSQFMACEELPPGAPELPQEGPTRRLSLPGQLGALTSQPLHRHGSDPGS
# Protocol: Inhibition of human ether-a-go-go-related gene (hERG) potassium channel current was carried out following a standard protocol by Pharmaron, Inc. hERG stably expressed HEK 293 cell line (Cat# K1236) was purchased from Invitrogen (Thermo Fisher Scientific, USA). The cells are cultured in 90% DMEM, 10% dialyzed FBS, 0.1 mM NEAA, 25 mM HEPES, 100 U/mL Penicillin-Streptomycin, 5 µg/mL Blasticidin, and 400 µg/mL Geneticin. Cells are split using TrypLE Express about three times a week and maintained between ~40% and ~80% confluence. Before the assay, the cells were plated onto the coverslips at 5 × 10^5 cells/6 cm cell culture dish and induced with doxycycline at 1 µg/mL for 48 h. Test compound was initially prepared in DMSO with final concentration of 30 mM as stock solution. Then stock solution of test compound was serial-diluted by ratio of 1:3 with DMSO to prepare additional four intermedial solutions including 10, 3.33, 1.11, 0.37 mM, respectively. […] 5 doses were challenged to the patched cells for IC50 determination.
# The voltage-gated hERG potassium channel current was recorded at room temperature (25 °C) from randomly selected transfected cells using whole-cell recording technique with a Multiclamp 700B amplifier (Molecular Devices, US) and an EPC10 microamplifier (HEKA, USA). Extracellular solution (in mM): 132 NaCl, 4 KCl, 3 CaCl2, 0.5 MgCl2, 11.1 glucose, and 10 HEPES (pH adjusted to 7.35 with NaOH). Intracellular solution (in mM): 70 KF, 60 KCl, 15 NaCl, 5 EGTA, and 5 HEPES (pH adjusted to 7.35 with KOH).
# The holding potential was set to −90 mV for 1 s; recording current at 50 kHz and filter at 10 kHz. Leaking current was tested at −80 mV for 500 ms. […] The current was recorded for 120 s to assess the current stability. […] After allowing the current to stabilize for 3 min, compound was applied. hERG current in the presence of test compound were recorded for approximately 5 min to reach steady state and then five sweeps were captured. […] Percent current inhibition was calculated using the following equation. […]
# [1] = stability in human liver microsomes; assay type: in vitro ADME; conditions: both sexes
# Protocol: Experiments were performed by Pharmaron, Inc., China. […] Negative control samples were prepared by replacing the NADPH solution with ultrapure H2O. The negative controls were used to exclude the confounding variable of test compound instability. Experiments involving NADPH were carried out in duplicate. Negative controls were prepared in singlet. Aliquots (90 µL) were taken at 0, 15, 30, 45, and 60 min of incubation. The microsomal reaction in each aliquot was stopped by the addition of four volumes of cold acetonitrile containing internal standards (100 nM alprazolam, 200 nM imipramine, 200 nM labetalol, and 2 µM ketoprofen). The samples were centrifuged at 3,220 × g for 40 min, and an aliquot (90 µL) of the supernatant was mixed with 90 µL of ultrapure H2O. The resulting mixture was used for liquid chromatography–tandem mass spectrometry (LC-MS/MS) analysis (Shimadzu and SCIEX Triple Quad 4500). Peak areas were determined from extracted ion chromatograms. A slope, k, was determined by linear regression analysis of a plot of the natural logarithm of the remaining percentage of the parent drug versus incubation time. The in vitro t1/2 (min) was determined from the slope: in vitro t1/2=−(0.693/k) In vitro t1/2 (min, mean of duplicate determinations) was converted to in vitro intrinsic clearance (in vitro Clint, μL/(min·µg protein)) by means of the following equation : in vitro Clint=(0.693/t1/2)×(volume of incubation (μL)/amount of protein (μg))
# THP-1 cells = conditions: cited from earlier work
# LXRβ = molecular target: T2, LXRβ (Homo sapiens, UniProt P55055); experiment: LXRβ radioligand binding inhibition; conditions: [3H]T0901317 binding, recombinant protein; for % inhibition observed, LXRβ: 10 µM; for inhibition at 10 µM: read-out: % inhibition observed, LXRβ
# T2 construct: Eurofins (assay provider); host or cells: E. coli
# T2 sequence (P55055 1-460): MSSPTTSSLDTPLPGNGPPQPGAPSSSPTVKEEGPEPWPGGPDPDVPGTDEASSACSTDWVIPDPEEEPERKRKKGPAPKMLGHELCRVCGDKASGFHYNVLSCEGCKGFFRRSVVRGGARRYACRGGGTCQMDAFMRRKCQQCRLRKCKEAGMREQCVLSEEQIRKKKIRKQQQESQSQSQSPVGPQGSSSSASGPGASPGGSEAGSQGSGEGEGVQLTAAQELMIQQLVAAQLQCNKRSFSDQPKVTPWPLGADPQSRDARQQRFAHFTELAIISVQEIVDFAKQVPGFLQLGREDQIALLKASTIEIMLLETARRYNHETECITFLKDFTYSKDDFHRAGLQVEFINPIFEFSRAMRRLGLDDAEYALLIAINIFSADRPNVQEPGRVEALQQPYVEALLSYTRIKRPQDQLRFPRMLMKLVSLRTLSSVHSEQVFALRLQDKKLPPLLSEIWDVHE
# Protocol: Four nuclear receptors: glucocorticoid, androgen, LXRα, and LXRβ were assayed. Inhibition of agonist binding to each of the receptors was carried out following a standard protocol by Eurofins, Inc., USA. Compounds were tested at 10 µM. Compound binding was measured by scintillation counting and was calculated as a % inhibition of the binding of a radioactively labeled ligand specific for each target. Percent inhibition of control specific binding was expressed as
# 100−[(measured specific binding)/(control specific binding)∗100]
# where measured specific binding is the amount of radioactive ligand binding obtained in the presence of test compounds.
# (iii) LXRα (human) recombinant protein expressed in E. coli; agonist radioligand 20 nM [^3H] […] (iv) LXRβ (human) recombinant protein expressed in E. coli; agonist radioligand 20 nM [^3H]
# [2] = human liver microsomes, pH 7.4, 1 μM, HLM 0.5 mg/mL, 37°C, 1 h, mean of duplicates, read-out: HLM stability t1/2
SMILES,IC50 (hERG channel) [µM],"half-life at 1 µM [1, 2] [min]","half-life at 1 µM ([1]; human liver microsomes, pH 7.4, as stated in text, read-out: half-life in human liver microsomes) [min]",IC50 (THP-1 cells) [µM],"% inhibition observed, LXRβ (LXRβ)",inhibition at 10 µM (LXRβ) [%],"half-life at 1 µM ([1]; microsomes, pH 7.4, HLM stability t1/2) [min]","IC50 (THP-1 cells; read-out: Mammalian cell IC50 Cytotoxicity THP1, THP-1 cells, 72 h, Alamar Blue) [µM]"
C[C@]12CCC3C(CNC4=CC(=O)CC[C@@]43C)C1CCC2C(=O)NC(c1ccc(F)cc1)c1ccc(F)cc1 (stereo partly shown) [Compound 5],3,443,> 360,24,low binding,26,,
CC(C)(C)c1ccc(C(C)(C)C)c(NC(=O)C2CCC3C4CNC5=CC(=O)CC[C@]5(C)C4CC[C@]23C)c1 (stereo partly shown) [Compound 1],0.95,,,,significantly inhibit binding,72,45,18
CCCN1CC2C3CCC(C(=O)Nc4cc(C(C)(C)C)ccc4C(C)(C)C)[C@@]3(C)CCC2[C@@]2(C)CCC(=O)C=C12 (stereo partly shown) [Compound 2],0.74,18,,24,significantly inhibit binding,69,,
